Data on 14 compounds can be found in patent US6596713B1, “Steroid esters and amides, process for their production and their pharmaceutical use” (priority 1994, dated 2003).

A value given as a limit tells only on which side of the number the result lay.

The format of this data set is physicochemical. The conditions noted are these: temperature in which 50 mg of substance is dissolved in 1 ml of a 1:4 benzyl benzoate/castor oil mixture; lower temperature = better solubility.
Consider `CC12CC3c4ccc(-c5ccc(C#N)cc5)cc4CC45CCC(=O)C=C4CCC(C35)C1CCC2(O)C=CCO` (stereo not drawn) [Ref. 1, (Z)-6′-(4-cyanophenyl)-9,11α-dihydro-17β-hydroxy-17α-(3-hydroxy-1-propenyl)-4′H-naphtho[3′,2′,1′:10,9,11]estr-4-en-3-one, reference compound], for which the Solubility is >>100 °C.

On to `CN(C)c1ccc(C2CC3(C)C(CCC3(O)C=CCOC(=O)CNC(=O)OC(C)(C)C)C3CCC4=CC(=O)CCC4C23)cc1` (stereo not drawn) [Example 37, [S-(Z)]-11β-[4-(Dimethylamino)phenyl]-17α-[3-[[[(1,1-dimethylethoxy)carbonyl]amino]acetyloxy]-1-propenyl]-17β-hydroxyestr-4-en-3-one], for which the Solubility turned out to be 23 °C.

On to “[S-(Z)]-9,11α-Dihydro-17α-[3-[2-[[(1,1-dimethylethoxy)carbonyl]amino]-1-oxopropoxy]-1-propenyl]-17β-hydroxy-6′-(3-pyridinyl)-4′H-naphtho[3′,2′,1′:10,9,11]estr-4-en-3-one [Example 24]”, for which the Solubility was 50 °C.

Regarding “(Z)-6′-(4-Cyanophenyl)-17α-[3-(3-cyclopentyl-1-oxopropoxy)-1-propenyl]-9,11α-dihydro-17β-hydroxy-4′H-naphtho[3′,2′,1′:10,9,11]estr-4-en-3-one [Example 8]”, the Solubility turned out to be 23 °C.

Consider `CC(C)C(=O)OC/C=C\[C@]1(O)CC[C@H]2[C@@H]3CCC4=CC(=O)CC[C@@]45Cc4cc(-c6ccc(C#N)cc6)ccc4[C@@H](C[C@@]21C)[C@@H]35` [Example 6, (Z)-6′-(4-Cyanophenyl)-9,11α-dihydro-17β-hydroxy-17α-[3-(1-oxo-2-methylpropoxy)-1-propenyl]-4′H-naphtho[3′,2′,1′:10,9,11]estr-4-en-3-one], for which the Solubility came out at 100 °C.

Consider `CC(C)C(NC(=O)OC(C)(C)C)C(=O)OCC=CC1(O)CCC2C3CCC4=CC(=O)CCC4C3C(c3ccc(N(C)C)cc3)CC21C` (stereo not drawn) [Example 32, [S-(Z)]-11β-[4-(Dimethylamino)phenyl]-17α-[3-[2-[(1,1-dimethylethoxy)carbonyl]amino]-3-methyl-1-oxobutoxyl]-1-propenyl]-17β-hydroxyestr-4-en-3-one], for which the Solubility stood at 23 °C.

Regarding “(Z)-6′-(4-Cyanophenyl)-9,11α-dihydro-17α-[3-(1,4-dioxo-4-ethoxybutoxy)-1-propenyl]-17β-hydroxy-4′H-naphtho[3′,2′,1′:10,9,11]estr-4-en-3-one [Example 10]”, the Solubility came to 50 °C.

As for “[S-(Z)]-6′-(4-Cyanophenyl)-9,11α-dihydro-17α-[3-[2-[[(1,1-dimethylethoxy)carbonyl]amino]-3-methyl-1-oxobutoxy]-17β-hydroxy-4′H-naphtho[3′,2′,1′:10,9,11]estr-4-en-3-one [Example 17]”, the Solubility is 50 °C.

On to “(Z)-6′-(4-Fluorophenyl)-17α-(3-hydroxyprop-1-enyl)-9, 11α-dihydro-17β-hydroxy-4′-naphtho]3′,2′,1′:10,9,11]estr-4-en-3-one [Ref. 4, reference compound]”, for which the Solubility turned out to be 100 °C.

As to `CCCCCCC(=O)OCC=CC1(O)CCC2C3CCC4=CC(=O)CCC45Cc4cc(-c6cccnc6)ccc4C(CC21C)C35` (stereo not drawn) [Example 20, (Z)-9,11α-Dihydro-17βhydroxy-17α-[3-[(1-oxoheptyl)oxy]-1-propenyl]-6′-(3-pyridinyl)-4′H-naphtho[3′,2′,1′:10,9,11]estr-4-en-3-one], the Solubility turned out to be 50 °C.

For the compound “6′-(4-Fluorophonyl)-17α-(3-hydroxyprop-1-inyl)-9,11α-dihydro-17β-hydroxy-4′H-naphtho[3′,2′,1′:10,9,11]estr-4-on-3-one [Ref. 5, reference compound]”, the Solubility came out at 23 °C.

For “(Z)-6′-(4-Cyanophenyl)-9,11α-dihydro-17β-hydroxy-17α-[3-[(1-oxopentyl)oxy]-1-propenyl]-4′H-naphtho[3′,2′,1′:10,9,11]estr-4-en-3-one [Example 2]”, the Solubility worked out at 50 °C.

With “(S-(Z)]-6′-(4-Cyanophenyl)-9,11α-dihydro-17α-[3-[2-[[(1,1-dimethylethoxy)carbonyl]amino]-1-oxopropoxy]-1-propenyl]-17β-hydroxy-4′H-naphtho[3′,2′,1′:10,9,11]estr-4-en-3-one [Example 15]”, the Solubility was 23 °C.

`CC(C)[C@H](NC(=O)OC(C)(C)C)C(=O)OCCC[C@@]1(O)CC[C@H]2[C@@H]3CCC4=CC(=O)CCC4=C3[C@@H](c3ccc(N(C)C)cc3)C[C@]21C` [Example 29, (S)-11β-[4-(Dimethylamino)phenyl]-17α-[3-[2-[[(1,1-dimethylethoxy)-carbonyl]amino]-3-methyl-1-oxobutoxy]-1-propyl]-17α-hydroxy-13α-estra-4,9-dien-3-one]: the Solubility was found to be 23 °C.
